What was measured:
Assay in all cases: relative viability (nuclei count vs DMSO), 5 days (fraction); higher = more cells survive
EKVX = tested on: EKVX
How it was run: (§1)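 Five library-drug doses in √10 steps were combined with a fixed anchor-drug dose, or a single drug was given alone, by pin tool to lung cancer cell lines in 1536-well plates the day after seeding. Nuclei were stained and counted after 5 days. Relative viability is the nuclei count in treated wells over that in vehicle wells, taken as the median of duplicate plates.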

201T = tested on: 201T
How it was run: as §1

NCI-H1734 = tested on: NCI-H1734
How it was run: as §1

HCC-15 = tested on: HCC-15
How it was run: as §1

HCC-78 = tested on: HCC-78
How it was run: as §1

A-427 = tested on: A-427
How it was run: as §1

NCI-H1915 = tested on: NCI-H1915
How it was run: as §1

NCI-H647 = tested on: NCI-H647
How it was run: as §1

NCI-H522 = tested on: NCI-H522
How it was run: as §1

NCI-H1993 = tested on: NCI-H1993
How it was run: as §1

PC-14 = tested on: PC-14
How it was run: as §1

LK-2 = tested on: LK-2
How it was run: as §1

HOP-62 = tested on: HOP-62
How it was run: as §1

COR-L 105 = tested on: COR-L 105
How it was run: as §1

NCI-H661 = tested on: NCI-H661
How it was run: as §1

COR-L23 = tested on: COR-L23
How it was run: as §1

SK-MES-1 = tested on: SK-MES-1
How it was run: as §1

BEN = tested on: BEN
How it was run: as §1

EMC-BAC-2 = tested on: EMC-BAC-2
How it was run: as §1

NCI-H2405 = tested on: NCI-H2405
How it was run: as §1

HCC-366 = tested on: HCC-366
How it was run: as §1

NCI-H460 = tested on: NCI-H460
How it was run: as §1

Structure (SMILES): Cc1csc(=NC2CCCCC2)n1/N=C/c1ccc(O)c(O)c1O [MIM1] + O=C(c1cc(Cc2n[nH]c(=O)c3ccccc23)ccc1F)N1CCN(C(=O)C2CC2)CC1 [Olaparib] (partner 8 µM)
- relative viability (EKVX; first compound 0.2 µM): 0.776
- relative viability (EKVX; first compound 0.6325 µM): 0.785
- relative viability (EKVX; first compound 2 µM): 0.59
- relative viability (EKVX; first compound 6.325 µM): 0.51
- relative viability (EKVX; first compound 20 µM): 0.412
- relative viability (201T; first compound 0.2 µM): 0.833
- relative viability (201T; first compound 0.6325 µM): 0.863
- relative viability (201T; first compound 2 µM): 0.831
- relative viability (201T; first compound 6.325 µM): 0.415
- relative viability (201T; first compound 20 µM): 0.396
- relative viability (NCI-H1734; first compound 0.2 µM): 0.58
- relative viability (NCI-H1734; first compound 0.6325 µM): 0.632
- relative viability (NCI-H1734; first compound 2 µM): 0.559
- relative viability (NCI-H1734; first compound 6.325 µM): 0.496
- relative viability (NCI-H1734; first compound 20 µM): 0.132
- relative viability (HCC-15; first compound 0.2 µM): 0.717
- relative viability (HCC-15; first compound 0.6325 µM): 0.713
- relative viability (HCC-15; first compound 2 µM): 0.749
- relative viability (HCC-15; first compound 6.325 µM): 0.39
- relative viability (HCC-15; first compound 20 µM): 0.115
- relative viability (HCC-78; first compound 0.2 µM): 0.716
- relative viability (HCC-78; first compound 2 µM): 0.906
- relative viability (HCC-78; first compound 6.325 µM): 0.47
- relative viability (HCC-78; first compound 20 µM): 0.462
- relative viability (A-427; first compound 0.2 µM): 0.757
- relative viability (A-427; first compound 0.6325 µM): 0.738
- relative viability (A-427; first compound 2 µM): 0.71
- relative viability (A-427; first compound 6.325 µM): 0.671
- relative viability (A-427; first compound 20 µM): 0.281
- relative viability (NCI-H1915; first compound 0.2 µM): 0.255
- relative viability (NCI-H1915; first compound 0.6325 µM): 0.248
- relative viability (NCI-H1915; first compound 2 µM): 0.236
- relative viability (NCI-H1915; first compound 6.325 µM): 0.203
- relative viability (NCI-H1915; first compound 20 µM): 0.133
- relative viability (NCI-H647; first compound 0.2 µM): 0.611
- relative viability (NCI-H647; first compound 0.6325 µM): 0.53
- relative viability (NCI-H647; first compound 2 µM): 0.697
- relative viability (NCI-H647; first compound 6.325 µM): 0.369
- relative viability (NCI-H647; first compound 20 µM): 0.0666
- relative viability (NCI-H522; first compound 0.2 µM): 0.597
- relative viability (NCI-H522; first compound 0.6325 µM): 0.625
- relative viability (NCI-H522; first compound 2 µM): 0.587
- relative viability (NCI-H522; first compound 6.325 µM): 0.725
- relative viability (NCI-H522; first compound 20 µM): 0.466
- relative viability (NCI-H1993; first compound 0.2 µM): 1
- relative viability (NCI-H1993; first compound 0.6325 µM): 0.819
- relative viability (NCI-H1993; first compound 2 µM): 0.949
- relative viability (NCI-H1993; first compound 6.325 µM): 0.873
- relative viability (NCI-H1993; first compound 20 µM): 0.432
- relative viability (PC-14; first compound 0.2 µM): 0.276
- relative viability (PC-14; first compound 0.6325 µM): 0.283
- relative viability (PC-14; first compound 2 µM): 0.228
- relative viability (PC-14; first compound 6.325 µM): 0.232
- relative viability (PC-14; first compound 20 µM): 0.0784
- relative viability (LK-2; first compound 0.2 µM): 0.934
- relative viability (LK-2; first compound 0.6325 µM): 0.75
- relative viability (LK-2; first compound 2 µM): 0.472
- relative viability (LK-2; first compound 6.325 µM): 0.685
- relative viability (LK-2; first compound 20 µM): 0.148
- relative viability (HOP-62; first compound 0.2 µM): 0.424
- relative viability (HOP-62; first compound 0.6325 µM): 0.529
- relative viability (HOP-62; first compound 2 µM): 0.169
- relative viability (HOP-62; first compound 6.325 µM): 0.293
- relative viability (HOP-62; first compound 20 µM): 0.115
- relative viability (COR-L 105; first compound 0.2 µM): 0.694
- relative viability (COR-L 105; first compound 0.6325 µM): 0.673
- relative viability (COR-L 105; first compound 2 µM): 0.63
- relative viability (COR-L 105; first compound 6.325 µM): 0.554
- relative viability (COR-L 105; first compound 20 µM): 0.564
- relative viability (NCI-H661; first compound 0.2 µM): 0.696
- relative viability (NCI-H661; first compound 0.6325 µM): 0.715
- relative viability (NCI-H661; first compound 2 µM): 0.778
- relative viability (NCI-H661; first compound 6.325 µM): 0.499
- relative viability (NCI-H661; first compound 20 µM): 0.316
- relative viability (COR-L23; first compound 0.2 µM): 0.29
- relative viability (COR-L23; first compound 0.6325 µM): 0.365
- relative viability (COR-L23; first compound 2 µM): 0.287
- relative viability (COR-L23; first compound 6.325 µM): 0.224
- relative viability (COR-L23; first compound 20 µM): 0.164
- relative viability (SK-MES-1; first compound 0.2 µM): 0.743
- relative viability (SK-MES-1; first compound 0.6325 µM): 0.657
- relative viability (SK-MES-1; first compound 2 µM): 0.548
- relative viability (SK-MES-1; first compound 6.325 µM): 0.259
- relative viability (SK-MES-1; first compound 20 µM): 0.108
- relative viability (BEN; first compound 0.2 µM): 1.07
- relative viability (BEN; first compound 0.6325 µM): 1.18
- relative viability (BEN; first compound 2 µM): 1.09
- relative viability (BEN; first compound 6.325 µM): 1.01
- relative viability (BEN; first compound 20 µM): 0.239
- relative viability (EMC-BAC-2; first compound 0.2 µM): 0.494
- relative viability (EMC-BAC-2; first compound 2 µM): 0.433
- relative viability (EMC-BAC-2; first compound 6.325 µM): 0.378
- relative viability (EMC-BAC-2; first compound 20 µM): 0.212
- relative viability (NCI-H2405; first compound 0.2 µM): 0.881
- relative viability (NCI-H2405; first compound 0.6325 µM): 0.918
- relative viability (NCI-H2405; first compound 2 µM): 0.827
- relative viability (NCI-H2405; first compound 6.325 µM): 0.681
- relative viability (NCI-H2405; first compound 20 µM): 0.369
- relative viability (HCC-366; first compound 0.2 µM): 0.351
- relative viability (HCC-366; first compound 2 µM): 0.249
- relative viability (HCC-366; first compound 6.325 µM): 0.0373
- relative viability (HCC-366; first compound 20 µM): 0.0269
- relative viability (NCI-H460; first compound 0.2 µM): 0.403
- relative viability (NCI-H460; first compound 0.6325 µM): 0.411
- relative viability (NCI-H460; first compound 2 µM): 0.195
- relative viability (NCI-H460; first compound 6.325 µM): 0.213
- relative viability (NCI-H460; first compound 20 µM): 0.0637
